Experimental data from patent publication US20200017823A1, “HYDROGEL COMPOSITIONS FOR USE IN NEURAL CELL EXPANSION AND DIFFERENTIATION” (Wisconsin Alumni Research Foundation, priority 2018, published 2020).
Where two headings read alike, the source gives them in different places.

How the values were obtained:
[1] = test system: iCell Neurons; assay: High-content imaging with skeleton network analysis: neurite branches versus cell viability
Procedure: All data points are mean±SEM. FIG. 14A: Dexamethasone. FIG. 14B: Colchicine.
Commercially available human iPSC-derived neurons (iCell Neurons) and their supporting media were purchased from Cellular Dynamics International (CDI, Madison, Wis.). Previously characterized iCell Neurons represent a mixture of post-mitotic GABAergic and glutamatergic neurons with >95% purity. The cells were received, frozen, thawed, and plated following a protocol recommended by CDI. Briefly, cells were plated on poly-L-lysine pre-coated 384 well plates (Greiner Bio-One) with PEG-NB hydrogels, 3.3 μg/ml laminin, or 60-120 μg/ml […]®.

[2] = test system: iCell Neurons; assay: Synthetic hydrogel-based network formation/inhibition assay (total network area); type: cell-based, human; conditions: PLL/Laminin and MATRIGEL screening systems
Excerpt: Total network area was quantified by thresholding neurite processes and cell bodies stained with immunofluorescent tags for βIII-tubulin and MAP2. The resulting data was compared using the Z′ statistic to assess the accuracy of the synthetic hydrogel, PLL/Laminin, and MATRIGEL® screening systems in distinguishing neuronal networks disrupted by the known microtubule inhibitor Colchicine from non-inhibited networks.

Row | Structure (SMILES) | cell viability [1] | neurite branches / neurite growth [1] | neuronal network (total network area, βIII-tubulin and MAP2 stain) [2] | neurite branches / neurite growth ([1]; synthetic substrate, treated after 120-hour growth, exposed 120 hours, media replenished daily, compared to cell viability)
1 | NC(=O)N1c2ccccc2C=Cc2ccccc21 [Carbamazepine] | reduced viability | apparent inhibition |  | 
2 | COc1cc2c(c(OC)c1OC)-c1ccc(OC)c(=O)cc1[C@@H](NC(C)=O)CC2 [Colchicine] |  |  | disrupted | significant reductions
3 | C[C@@H]1C[C@H]2[C@@H]3CCC4=CC(=O)C=C[C@]4(C)[C@@]3(F)[C@@H](O)C[C@]2(C)[C@@]1(O)C(=O)CO [Dexamethasone] |  | significant reductions |  | 
